Measured values: patent US8772500B2, “TRPV3 modulators” (AbbVie Inc., priority 2011, dated 2014)
Where two headings read alike, the source gives them in different places.

Assays:
[1] = In vitro human microsomal stability assay; format: in vitro ADME
Procedure, shortened: (§1)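 Incubations ran at 37 °C in NADPH-supplemented rat (Sprague-Dawley) or human hepatic microsomes.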

human TRPV3 = molecular target: T1, human TRPV3 (Homo sapiens, UniProt Q8NET8); test: In vitro antagonism of recombinant human TRPV3 activation (FLIPR Tetra calcium assay, 2-APB as agonist); format: cell-based; details: HEK293 cells stably expressing human TRPV3, 2-APB 80 μM
T1 construct: expressed in transfected cells
T1 sequence (Q8NET8 1-790): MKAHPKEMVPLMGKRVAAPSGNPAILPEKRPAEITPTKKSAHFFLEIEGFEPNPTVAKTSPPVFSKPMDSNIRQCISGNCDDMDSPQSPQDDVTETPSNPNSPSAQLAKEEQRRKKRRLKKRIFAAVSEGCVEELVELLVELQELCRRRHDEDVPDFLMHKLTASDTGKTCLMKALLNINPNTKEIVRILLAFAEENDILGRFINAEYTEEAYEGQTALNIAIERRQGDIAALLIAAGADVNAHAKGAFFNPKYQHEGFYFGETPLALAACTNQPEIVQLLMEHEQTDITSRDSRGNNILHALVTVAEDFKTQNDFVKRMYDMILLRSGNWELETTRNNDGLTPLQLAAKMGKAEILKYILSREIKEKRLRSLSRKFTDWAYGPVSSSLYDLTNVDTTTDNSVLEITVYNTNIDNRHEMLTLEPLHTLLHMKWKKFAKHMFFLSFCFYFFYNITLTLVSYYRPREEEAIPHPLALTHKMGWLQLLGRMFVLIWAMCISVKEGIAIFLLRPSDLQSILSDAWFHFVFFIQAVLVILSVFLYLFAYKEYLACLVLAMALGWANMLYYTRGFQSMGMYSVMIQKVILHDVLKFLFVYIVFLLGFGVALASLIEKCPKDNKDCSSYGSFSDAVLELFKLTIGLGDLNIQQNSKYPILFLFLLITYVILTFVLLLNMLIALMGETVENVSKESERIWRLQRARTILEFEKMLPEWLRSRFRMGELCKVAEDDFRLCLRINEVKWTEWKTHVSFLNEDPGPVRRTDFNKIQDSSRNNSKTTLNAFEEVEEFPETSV
Procedure, shortened: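 HEK293 cells stably expressing human TRPV3, loaded with Calcium-4 dye for 90-120 min; compound added 3 min before 2-APB at 80 μM (its EC80). Fluorescence (max minus min) over 10 min expressed as % of maximal 2-APB response without antagonist; IC50 mostly averaged from n≧2 runs.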

[2] = In vitro rat microsomal stability assay; format: in vitro ADME, rat (Sprague-Dawley)
Procedure, shortened: as §1

[3] = range class, read-out: IC50 (reported range)
[4] = Sprague-Dawley, rat, 0.5 h, 0.5 μM, pH 7.4
[5] = 0.5 μM substrate, 0.25 mg/mL microsomal protein, pH 7.4, 37° C., NADPH, 30 minutes

HUMAN MICROSOMAL STABILITY (% REMAINING AFTER 30 MINUTES) ([1]; human, 0.5 h, 0.5 μM, pH 7.4) | IC50 (human TRPV3; [3]) | RAT MICROSOMAL STABILITY (% REMAINING AFTER 30 MINUTES) [2, 4] | IC50 (human TRPV3; mostly average of n≧2, read-out: IC50 (actual measured value, shown parenthetically)) | Compound | HUMAN MICROSOMAL STABILITY (% REMAINING AFTER 30 MINUTES) [1, 5] | RAT MICROSOMAL STABILITY (% REMAINING AFTER 30 MINUTES) [2, 5]
63% | 0.05 to 0.5 µM | 49% |  | OC1CC(c2ccnc(C(F)(F)F)c2)(C(O)c2ccccn2)C1 [Example 305, cis-3-[(S)-hydroxy(pyridin-2-yl)methyl]-3-[2-(trifluoromethyl)pyridin-4-yl]-cyclobutanol] |  | 
>85% | 0.501 to 1 µM | >85% |  | OC1CC(c2cc(C(F)(F)F)ccn2)(C(O)c2ccccn2)C1 [Example 283, trans-3-[(S)-hydroxy(pyridin-2-yl)methyl]-3-[4-(trifluoromethyl)pyridin-2-yl]cyclobutanol] |  | 
70% | 5.1 to 20 µM | 53% |  | O=C1CC(c2ccc(F)c(Cl)c2)(C(O)c2ccccn2)C1 (stereo not shown) [Example 258, 3-(3-chloro-4-fluorophenyl)-3-[hydroxy(pyridin-2-yl)methyl]cyclobutanone] |  | 
19% | 5.1 to 20 µM | 23% |  | OC(c1ccccn1)C1(c2cccc(C(F)(F)F)n2)CCC1 (stereo not shown) [Example 234, pyridin-2-yl{1-[6-(trifluoromethyl)pyridin-2-yl]cyclobutyl}methanol] |  | 
1.2% | 0.05 to 0.5 µM | 2.3% |  | OC(c1ccccn1)C1(c2cccc(C(F)(F)F)c2)CCC1 (stereo not shown) [Example 6, pyridin-2-yl{1-[3-(trifluoromethyl)phenyl]cyclobutyl}methanol] |  | 
13% | 0.501 to 1 µM | 4.9% |  | OC(c1ccccn1)C1(c2ccc(F)c(F)c2)CCCO1 (stereo not drawn) [Example 108, (anti)-[2-(3,4-difluorophenyl)tetrahydrofuran-2-yl](pyridin-2-yl)methanol] |  | 
7.6% | 0.05 to 0.5 µM | 0.020% |  | OC(c1ccccn1)C1(c2ccc(Cl)c(Cl)c2)CCCO1 (stereo not shown) [Example 98] |  | 
40% | 5.1 to 20 µM | 12% | 11.2 µM | OC(c1ccccn1)C1(C2=CCCOC2)CCC1 (single isomer, unassigned) [Example 269, [1-(5,6-dihydro-2H-pyran-3-yl)cyclobutyl](pyridin-2-yl)methanol] |  | 
35% | 1.1 to 5 µM | 0.020% |  | OC(c1ccccn1)C1(c2nc3ccc(F)cc3s2)CCC1 (stereo not shown) [Example 300, [1-(6-fluoro-1,3-benzothiazol-2-yl)cyclobutyl](pyridin-2-yl)methanol] |  | 
82% | 5.1 to 20 µM | 76% |  | OC(c1ccccn1)C1(c2ccc(C(F)(F)F)nc2)CCC1 (stereo not shown) [Example 85, pyridin-2-yl{1-[6-(trifluoromethyl)pyridin-3-yl]cyclobutyl}methanol] |  | 
62% | 1.1 to 5 µM | >85% |  | OC1CC(c2ccc(Cl)c(Cl)c2)(C(O)c2ccccn2)C1 [Example 247, cis-3-(3,4-dichlorophenyl)-3-[(R)-hydroxy(pyridin-2-yl)methyl]cyclobutanol] |  | 
4.0% | 0.501 to 1 µM | 17% |  | O[C@H](c1ccccn1)C1(c2ccc(Cl)c(Cl)c2)CC1 [Example 231, (S)-[1-(3,4-dichlorophenyl)cyclopropyl](pyridin-2-yl)methanol] |  | 

The remaining lines, values behind:

Compound | HUMAN MICROSOMAL STABILITY (% REMAINING AFTER 30 MINUTES) ([1]; human, 0.5 h, 0.5 μM, pH 7.4) | IC50 (human TRPV3; [3]) | RAT MICROSOMAL STABILITY (% REMAINING AFTER 30 MINUTES) [2, 4] | IC50 (human TRPV3; mostly average of n≧2, read-out: IC50 (actual measured value, shown parenthetically)) | HUMAN MICROSOMAL STABILITY (% REMAINING AFTER 30 MINUTES) [1, 5] | RAT MICROSOMAL STABILITY (% REMAINING AFTER 30 MINUTES) [2, 5]
Nc1cccnc1C(O)C1(c2ccc(Cl)c(Cl)c2)CCC1 (stereo not shown) [Example 130, (3-aminopyridin-2-yl) [1-(3,4-dichlorophenyl)cyclobutyl]methanol] | 4.0% | 1.1 to 5 µM | <0.01% |  |  | 
CN1CCC(c2ccccc2OC(F)(F)F)(C(O)c2ccccn2)CC1 (stereo not shown) [Example 149, {1-methyl-4-[2-(trifluoromethoxy)phenyl]piperidin-4-yl}(pyridin-2-yl)-methanol] |  | 5.1 to 20 µM |  |  | >85% | 62%
OC(c1ccccn1)C1(c2ccc(C(F)(F)F)cc2)CNC1 (stereo not shown) [Example 152, pyridin-2-yl{3-[4-(trifluoromethyl)phenyl]azetidin-3-yl}methanol] | >85% | 5.1 to 20 µM | >85% |  |  | 
CN(C)N=C1CC(c2ccc(OC(F)(F)F)cc2)([C@H](O)c2ccccn2)C1 (stereo partly drawn) [Example 267, (S)-{3-(dimethylhydrazinylidene)-1-[4-(trifluoromethoxy)phenyl]-cyclobutyl}(pyridin-2-yl)methanol] | 64% | 1.1 to 5 µM | 10% |  |  | 
OC(C1CCCc2cccnc21)C1(c2ccc(F)c(F)c2)CCC1 (stereo not drawn) [Example 169, (anti)-[1-(3,4-difluorophenyl)cyclobutyl][5,6,7,8-tetrahydroquinolin-8-yl]-methanol] | <0.01% | 5.1 to 20 µM | <0.01% |  |  | 
CON=C1CC(c2ccc(OC(F)(F)F)cc2)([C@H](O)c2ccccn2)C1 (stereo partly drawn) [Example 249, (S)-{3-(methoxyimino)-1-[4-(trifluoromethoxy)phenyl]cyclobutyl}(pyridin-2-yl)methanol] | 61% | 1.1 to 5 µM | 3.2% |  |  | 
O=C1CC(c2cccc(OC(F)(F)F)c2)(C(O)c2ccccn2)C1 (stereo not shown) [Example 237, 3-[hydroxy(pyridin-2-yl)methyl]-3-[3-(trifluoromethoxy)phenyl]-cyclobutanone] | 51% | 1.1 to 5 µM | 50% |  |  | 
NC1CCCCC1C(O)C1(c2cccc(C(F)(F)F)c2)CCC1 (stereo not shown) [Example 212, (2-aminocyclohexyl){1-[3-(trifluoromethyl)phenyl]cyclobutyl}methanol] | >85% | 1.1 to 5 µM | 3.9% |  |  | 
OC1CC(c2ccc(C(F)(F)F)cc2)([C@H](O)c2ccccn2)C1 (stereo partly drawn) [Example 166, 3-[(S)-hydroxy(pyridin-2-yl)methyl]-3-[4-(trifluoromethyl)phenyl]-cyclobutanol] | >85% | 5.1 to 20 µM | >85% |  |  | 
CC1(O)CC(c2cccc(C(F)(F)F)c2)(C(O)c2ccccn2)C1 (single isomer, unassigned) [Example 236] | 54% | 0.501 to 1 µM | 41% |  |  | 
OC(C1CCCc2cccnc21)C1(c2ccc(C(F)(F)F)cc2)CCC1 (stereo not drawn) [Example 183, (anti)-5,6,7,8-tetrahydroquinolin-8-yl{1-[4-(trifluoromethyl)phenyl]-cyclobutyl}methanol] | <0.01% | 1.1 to 5 µM | <0.01% |  |  | 
